≈ marks a conversion by molar mass, not a printed value.
Key:
Assay in all cases: MIC, broth-microdilution (CLSI VET01-A4)
Format in all cases: cell-based
[1] = tested on: Mannheimia haemolytica MH 6357 (M7/2, reference strain, cattle infection strain); details: Mannheimia haemolytica MH 6357; for MIC: read-out: MIC MH 6357
Description: (§1) The Minimum inhibitory concentrations (MIC) of compounds according to the invention for a number of veterinary bacterial pathogens were determined by the broth-microdilution method according to CLSI document VET01-A4.
(§2) Microdilution trays containing a doubling dilution series of the test compound were used for the tests. The MIC results were interpreted according to the CLSI documents VET01-S3. The lowest concentration of compound at which no visible growth (i.e. no turbidity) detected by the unaided eye was recorded as the MIC.
(§3) The Minimum inhibitory concentrations (MIC) of compounds according to the invention were determined by the broth-microdilution method according to CLSI document VET01-A4.
(§4) Microdilution trays containing a doubling dilution series of the test compound were used for the tests.
(§5) The MIC results were interpreted according to the CLSI documents VET01-S3. The lowest concentration of compound at which no visible growth (i.e. no turbidity) detected by the unaided eye was recorded as the MIC.

[2] = tested on: Mannheimia haemolytica MH 12587 (1071, BRD field isolate, macrolide-resistance: erm+, E+); details: Mannheimia haemolytica MH 12587, macrolide-resistant
Description: as §1, §2, §3, §4, §5

[3] = tested on: Pasteurella multocida PM 6391 (ATCC 43137, reference strain); details: Pasteurella multocida PM 6391
Description: as §1, §2, §3, §4, §5

[4] = tested on: Pasteurella multocida PM 12080 (IV102277-0093, BRD field isolate); details: Pasteurella multocida PM 12080
Description: as §1, §2, §3, §4, §5

[5] = tested on: Mannheimia haemolytica MH 6374 (ATCC 33396, reference strain); details: Mannheimia haemolytica MH 6374; for MIC: read-out: MIC MH 6374
Description: as §1, §2, §3, §4, §5

[6] = tested on: Pasteurella multocida PM 6267 (P 2225 (L386), reference strain, mouse infection strain); details: Pasteurella multocida PM 6267
Description: as §1, §2, §3, §4, §5

[7] = tested on: Mannheimia haemolytica MH 13093 (XB0472-6014.1, BRD field isolate)
Description: as §1, §2

[8] = tested on: Mannheimia haemolytica MH 10720 (154, BRD field isolate); details: Mannheimia haemolytica MH 10720
Description: as §1, §2, §3, §4, §5

Row | Structure (SMILES) | MIC [1] [µM] | MIC MH 12587 [2] [µM] | MIC PM 6391 [3] | MIC PM 12080 [4] | MIC [5] [µM] | MIC PM 6267 [6] | MIC [7] [µM] | MIC MH 6374 [5] | MIC MH 10720 [8] | MIC MH 6357 [1] | MIC ([8]; read-out: MIC MH 10720) [µM]
1 | C[C@@H](O)[C@H](NC(=O)c1ccc(C#Cc2ccc(CNCc3ccc(F)cc3)cc2)cc1)C(=O)NO [Compound 475] | 0.2 (≈ 0.0951 µg/mL) | 0.8 (≈ 0.38 µg/mL) | <=0.1 μM | <=0.1 μM | 0.4 (≈ 0.19 µg/mL) | <=0.1 μM | 0.8 (≈ 0.38 µg/mL) |  |  |  | 
2 | C=C(C)CNCc1ccc(C#Cc2ccc(C(=O)N[C@H](C(=O)NO)[C@@H](C)O)cc2)s1 [Compound 476] | 0.2 (≈ 0.0855 µg/mL) | 0.8 (≈ 0.342 µg/mL) | <=0.1 μM | <=0.1 μM |  | <=0.1 μM | 0.4 (≈ 0.171 µg/mL) | <=0.1 μM | <=0.1 μM |  | 
3 | C[C@@H](O)[C@H](NC(=O)c1ccc(C#Cc2ccc(CNCC(F)(F)F)s2)cc1)C(=O)NO [Compound 477] |  | 0.4 (≈ 0.182 µg/mL) | <=0.1 μM | <=0.1 μM | 0.2 (≈ 0.0911 µg/mL) | <=0.1 μM | 0.4 (≈ 0.182 µg/mL) |  | <=0.1 μM | <=0.1 μM | 
4 | C[C@@H](O)[C@H](NC(=O)c1ccc(C#Cc2ccc(CN3CC=CC3)s2)cc1)C(=O)NO [Compound 478] |  | 0.4 (≈ 0.17 µg/mL) | <=0.1 μM | <=0.1 μM |  | <=0.1 μM | 0.2 (≈ 0.0851 µg/mL) | <=0.1 μM | <=0.1 μM | <=0.1 μM | 
5 | C#CCNCc1ccc(C#Cc2ccc(C(=O)N[C@H](C(=O)NO)[C@@H](C)O)cc2)s1 [Compound 479] |  | 0.8 (≈ 0.329 µg/mL) | <=0.1 μM | <=0.1 μM | 0.2 (≈ 0.0823 µg/mL) | <=0.1 μM | 0.8 (≈ 0.329 µg/mL) |  | <=0.1 μM | <=0.1 μM | 
6 | CSCCNCc1ccc(C#Cc2ccc(C(=O)N[C@H](C(=O)NO)[C@@H](C)O)cc2)s1 [Compound 482] | 0.2 (≈ 0.0895 µg/mL) | 0.8 (≈ 0.358 µg/mL) | <=0.1 μM | <=0.1 μM | 0.4 (≈ 0.179 µg/mL) | <=0.1 μM | 0.8 (≈ 0.358 µg/mL) |  | <=0.1 μM |  | 
7 | Cc1cnc(CNCc2ccc(C#Cc3ccc(C(=O)N[C@H](C(=O)NO)[C@@H](C)O)cc3)s2)o1 [Compound 484] | 0.2 (≈ 0.0937 µg/mL) | 0.8 (≈ 0.375 µg/mL) | <=0.1 μM | <=0.1 μM | 0.4 (≈ 0.187 µg/mL) | <=0.1 μM | 0.8 (≈ 0.375 µg/mL) |  | <=0.1 μM |  | 
8 | C[C@@H](O)[C@H](NC(=O)c1ccc(C#Cc2ccc(CNCc3ccc(F)cc3)s2)cc1)C(=O)NO [Compound 485] |  | 0.4 (≈ 0.193 µg/mL) | <=0.1 μM | <=0.1 μM |  | <=0.1 μM | 0.2 (≈ 0.0963 µg/mL) | <=0.1 μM | <=0.1 μM | <=0.1 μM | 
9 | C=C(C)CNCc1ccc(C#Cc2ccc(C(=O)N[C@H](C(=O)NO)[C@@H](C)O)cc2)cn1 [Compound 486] | 0.8 (≈ 0.338 µg/mL) | 1.6 (≈ 0.676 µg/mL) | <=0.1 μM | <=0.1 μM | 1.6 (≈ 0.676 µg/mL) | <=0.1 μM | 1.6 (≈ 0.676 µg/mL) |  |  |  | 0.2 (≈ 0.0845 µg/mL)
10 | C[C@@H](O)[C@H](NC(=O)c1ccc(C#Cc2ccc(CNCC(F)(F)F)nc2)cc1)C(=O)NO [Compound 487] | 0.4 (≈ 0.18 µg/mL) | 1.6 (≈ 0.721 µg/mL) | <=0.1 μM | <=0.1 μM | 1.6 (≈ 0.721 µg/mL) | <=0.1 μM | 1.6 (≈ 0.721 µg/mL) |  | <=0.1 μM |  | 
11 | C#CCNCc1ccc(C#Cc2ccc(C(=O)N[C@H](C(=O)NO)[C@@H](C)O)cc2)cn1 [Compound 490] | 0.4 (≈ 0.163 µg/mL) | 1.6 (≈ 0.65 µg/mL) | <=0.1 μM | <=0.1 μM | 0.8 (≈ 0.325 µg/mL) |  | 1.6 (≈ 0.65 µg/mL) |  | <=0.1 μM |  | 
12 | Cc1cnc(CNCc2ccc(C#Cc3ccc(C(=O)N[C@H](C(=O)NO)[C@@H](C)O)cc3)cn2)o1 [Compound 495] | 0.4 (≈ 0.185 µg/mL) | 1.6 (≈ 0.742 µg/mL) | <=0.1 μM | <=0.1 μM | 1.6 (≈ 0.742 µg/mL) | <=0.1 μM | 1.6 (≈ 0.742 µg/mL) |  | <=0.1 μM |  | 

Source: patent publication US20230000813A1, “COMPOUND FOR THE TREATMENT OF BOVINE OR SWINE RESPIRATORY DISEASE” (Intervet Inc., priority 2016, published 2023)
